Publication PMC12858467, “In vitro toxicokinetics and metabolic profiling of methoxycathinones and methylthiocathinones using human liver systems and hyphenated mass spectrometry” (Archives of Toxicology, 2025)

What was measured:
Format in all cases: in vitro ADME
Conditions in all cases: 30 min, 37 °C
CYP2B6 = molecular target: T1, CYP2B6 (Homo sapiens, UniProt P20813); test: Monooxygenases activity screening, CYP2B6; design: key: +, detected; -, not detected
T1 construct: purchased Discovery Life Sciences (Huntsville, LA, USA); host or cells: baculovirus-infected insect cells (microsomes, Supersomes)
T1 sequence (P20813 1-491): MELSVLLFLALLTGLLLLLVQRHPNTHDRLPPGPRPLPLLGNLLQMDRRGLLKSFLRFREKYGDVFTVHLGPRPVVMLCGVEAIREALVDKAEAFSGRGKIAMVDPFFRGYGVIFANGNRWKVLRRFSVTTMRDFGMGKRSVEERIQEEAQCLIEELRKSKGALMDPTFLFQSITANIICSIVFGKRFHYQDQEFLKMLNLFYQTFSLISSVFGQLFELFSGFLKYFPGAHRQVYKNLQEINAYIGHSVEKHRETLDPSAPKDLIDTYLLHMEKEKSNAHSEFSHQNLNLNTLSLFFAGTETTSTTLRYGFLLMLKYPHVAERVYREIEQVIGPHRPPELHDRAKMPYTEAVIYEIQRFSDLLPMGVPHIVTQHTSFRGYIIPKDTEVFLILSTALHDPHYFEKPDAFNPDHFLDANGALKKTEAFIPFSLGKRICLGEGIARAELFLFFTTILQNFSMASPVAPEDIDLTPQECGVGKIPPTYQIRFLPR
Description: (§1) For incubations with CYP2A6 or CYP2C9, phosphate buffer was replaced with 90 mM Tris buffer, according to the manufacturer’s guideline. […] All incubations were done in duplicate and concentrations were fixed. Verapamil (25 µM) was incubated as a positive control.

CYP2C19 = molecular target: T2, CYP2C19 (Homo sapiens, UniProt P33261); test: Monooxygenases activity screening, CYP2C19; design: key: +, detected; -, not detected
T2 construct: purchased Discovery Life Sciences (Huntsville, LA, USA); host or cells: baculovirus-infected insect cells (microsomes, Supersomes)
Description: as §1

CYP3A4 = molecular target: T3, CYP3A4 (Homo sapiens, UniProt P08684); test: Monooxygenases activity screening, CYP3A4; design: key: +, detected; -, not detected
T3 construct: purchased Discovery Life Sciences (Huntsville, LA, USA); host or cells: baculovirus-infected insect cells (microsomes, Supersomes)
Description: as §1

CYP2C9 = molecular target: T4, CYP2C9 (Homo sapiens, UniProt P11712); test: Monooxygenases activity screening, CYP2C9; design: key: +, detected; -, not detected
T4 construct: purchased Discovery Life Sciences (Huntsville, LA, USA); host or cells: baculovirus-infected insect cells (microsomes, Supersomes)
Description: as §1

CYP2D6 = molecular target: T5, CYP2D6 (Homo sapiens, UniProt P10635); test: Monooxygenases activity screening, CYP2D6; design: key to one-step metabolite detected in CYP2D6 incubation: +, detected; -, not detected
T5 construct: purchased Discovery Life Sciences (Huntsville, LA, USA); host or cells: baculovirus-infected insect cells (microsomes, Supersomes)
Description: as §1

CYP2C8 = molecular target: T6, CYP2C8 (Homo sapiens, UniProt P10632); test: Monooxygenases activity screening, CYP2C8; design: key: +, detected; -, not detected
T6 construct: purchased Discovery Life Sciences (Huntsville, LA, USA); host or cells: baculovirus-infected insect cells (microsomes, Supersomes)
T6 sequence (P10632 1-490): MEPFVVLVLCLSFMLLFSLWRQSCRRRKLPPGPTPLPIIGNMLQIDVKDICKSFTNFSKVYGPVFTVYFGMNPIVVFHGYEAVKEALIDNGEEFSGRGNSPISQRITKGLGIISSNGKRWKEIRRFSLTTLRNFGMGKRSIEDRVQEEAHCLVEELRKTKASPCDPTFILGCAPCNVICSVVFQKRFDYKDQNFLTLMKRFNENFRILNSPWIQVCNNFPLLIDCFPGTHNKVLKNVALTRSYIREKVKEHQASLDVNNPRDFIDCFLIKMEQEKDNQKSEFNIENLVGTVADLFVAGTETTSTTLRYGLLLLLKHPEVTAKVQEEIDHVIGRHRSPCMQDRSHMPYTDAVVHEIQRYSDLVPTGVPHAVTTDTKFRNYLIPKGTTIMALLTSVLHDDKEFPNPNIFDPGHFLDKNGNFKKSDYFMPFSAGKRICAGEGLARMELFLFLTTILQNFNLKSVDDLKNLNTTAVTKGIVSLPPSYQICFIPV
Description: as §1

CYP2E1 = molecular target: T7, CYP2E1 (Homo sapiens, UniProt P05181); test: Monooxygenases activity screening, CYP2E1; design: key: +, detected; -, not detected
T7 construct: purchased Discovery Life Sciences (Huntsville, LA, USA); host or cells: baculovirus-infected insect cells (microsomes, Supersomes)
Description: as §1

CYP2A6 = molecular target: T8, CYP2A6 (Homo sapiens, UniProt P11509); test: Monooxygenases activity screening, CYP2A6; design: key: +, detected; -, not detected
T8 construct: purchased Discovery Life Sciences (Huntsville, LA, USA); host or cells: baculovirus-infected insect cells (microsomes, Supersomes)
T8 sequence (P11509 1-494): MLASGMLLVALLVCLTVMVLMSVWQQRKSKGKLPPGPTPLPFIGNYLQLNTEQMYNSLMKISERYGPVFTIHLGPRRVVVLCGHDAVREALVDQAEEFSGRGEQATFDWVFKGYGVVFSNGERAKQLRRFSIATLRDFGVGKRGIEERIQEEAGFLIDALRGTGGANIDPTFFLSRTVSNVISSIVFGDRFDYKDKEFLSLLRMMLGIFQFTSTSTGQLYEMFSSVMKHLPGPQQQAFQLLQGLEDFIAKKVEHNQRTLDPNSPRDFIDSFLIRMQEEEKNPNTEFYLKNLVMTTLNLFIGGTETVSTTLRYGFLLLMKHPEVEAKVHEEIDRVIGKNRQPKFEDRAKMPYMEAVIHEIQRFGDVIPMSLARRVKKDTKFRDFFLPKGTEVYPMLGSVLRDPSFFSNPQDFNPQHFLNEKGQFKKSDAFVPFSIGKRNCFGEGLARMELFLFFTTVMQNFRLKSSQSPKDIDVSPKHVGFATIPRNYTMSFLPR
Description: as §1

[1] = molecular target: T9, flavin-containing monooxygenase 3 (FMO3) (Homo sapiens, UniProt P31513); test: Monooxygenases activity screening, FMO3; design: key: +, detected; -, not detected
T9 construct: purchased Discovery Life Sciences (Huntsville, LA, USA); host or cells: baculovirus-infected insect cells (microsomes, Supersomes)
T9 sequence (P31513 1-532): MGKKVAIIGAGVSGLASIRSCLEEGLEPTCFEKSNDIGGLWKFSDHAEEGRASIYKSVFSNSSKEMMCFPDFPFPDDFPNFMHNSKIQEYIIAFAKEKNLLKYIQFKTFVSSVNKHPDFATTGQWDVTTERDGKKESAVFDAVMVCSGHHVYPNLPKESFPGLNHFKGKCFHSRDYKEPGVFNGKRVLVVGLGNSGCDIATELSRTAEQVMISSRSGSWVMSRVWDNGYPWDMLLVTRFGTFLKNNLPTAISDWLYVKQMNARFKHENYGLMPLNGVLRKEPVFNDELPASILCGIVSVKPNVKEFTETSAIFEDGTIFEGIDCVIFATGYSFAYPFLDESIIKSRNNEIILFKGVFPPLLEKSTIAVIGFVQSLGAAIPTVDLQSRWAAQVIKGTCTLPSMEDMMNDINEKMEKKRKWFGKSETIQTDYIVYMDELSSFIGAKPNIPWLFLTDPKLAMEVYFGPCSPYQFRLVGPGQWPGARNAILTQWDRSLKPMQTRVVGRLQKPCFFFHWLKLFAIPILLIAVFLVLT
Description: as §1

CYP3A5 = molecular target: T10, CYP3A5 (Homo sapiens, UniProt P20815); test: Monooxygenases activity screening, CYP3A5; design: key: +, detected; -, not detected
T10 construct: purchased Discovery Life Sciences (Huntsville, LA, USA); host or cells: baculovirus-infected insect cells (microsomes, Supersomes)
Description: as §1

CYP1A2 = molecular target: T11, CYP1A2 (Homo sapiens, UniProt P05177); test: Monooxygenases activity screening, CYP1A2; design: key: +, detected; -, not detected
T11 construct: purchased Discovery Life Sciences (Huntsville, LA, USA); host or cells: baculovirus-infected insect cells (microsomes, Supersomes)
T11 sequence (P05177 1-516): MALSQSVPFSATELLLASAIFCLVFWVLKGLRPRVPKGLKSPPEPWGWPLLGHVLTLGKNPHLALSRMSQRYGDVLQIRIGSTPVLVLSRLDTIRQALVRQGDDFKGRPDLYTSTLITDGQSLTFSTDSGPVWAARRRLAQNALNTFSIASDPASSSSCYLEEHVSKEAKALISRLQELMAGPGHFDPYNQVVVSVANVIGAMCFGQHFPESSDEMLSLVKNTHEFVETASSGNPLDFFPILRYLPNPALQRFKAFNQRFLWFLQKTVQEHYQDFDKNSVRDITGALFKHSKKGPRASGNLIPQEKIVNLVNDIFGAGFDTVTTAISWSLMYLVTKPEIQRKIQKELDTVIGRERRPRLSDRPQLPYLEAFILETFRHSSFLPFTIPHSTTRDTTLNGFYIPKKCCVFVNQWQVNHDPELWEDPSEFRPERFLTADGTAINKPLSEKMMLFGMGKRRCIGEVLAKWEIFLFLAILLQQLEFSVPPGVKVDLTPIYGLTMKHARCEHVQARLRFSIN
Description: as §1

[2] = substrate 4MeO-αP-VP 25 µM, Table S3.3
[3] = substrate 4MeS-αMor-PrP 25 µM, Table S3.6
[4] = substrate 4MeO-NE-BP 25 µM, Table S3.1

T3 sequence (P08684 whole entry): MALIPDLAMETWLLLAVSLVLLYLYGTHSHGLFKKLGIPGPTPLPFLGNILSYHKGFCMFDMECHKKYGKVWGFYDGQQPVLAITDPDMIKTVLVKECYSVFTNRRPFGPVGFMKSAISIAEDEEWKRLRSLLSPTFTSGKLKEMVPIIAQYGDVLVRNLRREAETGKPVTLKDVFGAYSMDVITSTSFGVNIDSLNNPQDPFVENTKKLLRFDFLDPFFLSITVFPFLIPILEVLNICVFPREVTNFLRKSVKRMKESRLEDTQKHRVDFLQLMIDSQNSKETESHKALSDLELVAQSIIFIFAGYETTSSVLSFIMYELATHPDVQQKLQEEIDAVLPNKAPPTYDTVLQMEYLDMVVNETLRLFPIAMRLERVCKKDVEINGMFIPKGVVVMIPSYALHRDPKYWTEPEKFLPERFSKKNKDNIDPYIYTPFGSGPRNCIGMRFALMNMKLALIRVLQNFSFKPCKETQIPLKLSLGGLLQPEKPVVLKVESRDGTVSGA
T7 sequence (P05181 whole entry): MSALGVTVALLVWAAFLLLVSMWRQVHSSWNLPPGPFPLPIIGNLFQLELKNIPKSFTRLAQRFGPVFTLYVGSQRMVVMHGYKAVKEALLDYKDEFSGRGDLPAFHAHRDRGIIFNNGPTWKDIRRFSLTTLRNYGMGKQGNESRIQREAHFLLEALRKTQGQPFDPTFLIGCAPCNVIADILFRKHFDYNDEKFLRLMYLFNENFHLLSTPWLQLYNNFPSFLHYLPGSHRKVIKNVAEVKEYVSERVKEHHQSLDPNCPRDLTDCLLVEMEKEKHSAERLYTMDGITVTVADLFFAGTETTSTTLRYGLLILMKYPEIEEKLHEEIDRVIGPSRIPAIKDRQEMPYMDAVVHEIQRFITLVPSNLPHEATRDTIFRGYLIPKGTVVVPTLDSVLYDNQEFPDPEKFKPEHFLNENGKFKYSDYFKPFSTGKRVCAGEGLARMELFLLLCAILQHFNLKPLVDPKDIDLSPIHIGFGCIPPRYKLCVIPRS
T2 sequence (P33261 whole entry): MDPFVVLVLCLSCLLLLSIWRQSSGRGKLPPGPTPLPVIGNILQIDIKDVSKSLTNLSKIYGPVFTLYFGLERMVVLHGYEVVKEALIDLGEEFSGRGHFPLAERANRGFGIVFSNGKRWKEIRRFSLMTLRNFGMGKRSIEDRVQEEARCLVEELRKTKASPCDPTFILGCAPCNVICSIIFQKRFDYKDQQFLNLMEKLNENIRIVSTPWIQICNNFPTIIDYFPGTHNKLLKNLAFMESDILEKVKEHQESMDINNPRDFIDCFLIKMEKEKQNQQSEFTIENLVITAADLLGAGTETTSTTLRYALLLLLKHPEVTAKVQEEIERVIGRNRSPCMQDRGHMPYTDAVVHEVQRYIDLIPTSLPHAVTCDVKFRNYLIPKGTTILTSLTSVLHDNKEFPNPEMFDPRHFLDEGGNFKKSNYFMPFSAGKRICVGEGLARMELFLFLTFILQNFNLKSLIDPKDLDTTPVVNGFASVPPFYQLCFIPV
T10 sequence (P20815 whole entry): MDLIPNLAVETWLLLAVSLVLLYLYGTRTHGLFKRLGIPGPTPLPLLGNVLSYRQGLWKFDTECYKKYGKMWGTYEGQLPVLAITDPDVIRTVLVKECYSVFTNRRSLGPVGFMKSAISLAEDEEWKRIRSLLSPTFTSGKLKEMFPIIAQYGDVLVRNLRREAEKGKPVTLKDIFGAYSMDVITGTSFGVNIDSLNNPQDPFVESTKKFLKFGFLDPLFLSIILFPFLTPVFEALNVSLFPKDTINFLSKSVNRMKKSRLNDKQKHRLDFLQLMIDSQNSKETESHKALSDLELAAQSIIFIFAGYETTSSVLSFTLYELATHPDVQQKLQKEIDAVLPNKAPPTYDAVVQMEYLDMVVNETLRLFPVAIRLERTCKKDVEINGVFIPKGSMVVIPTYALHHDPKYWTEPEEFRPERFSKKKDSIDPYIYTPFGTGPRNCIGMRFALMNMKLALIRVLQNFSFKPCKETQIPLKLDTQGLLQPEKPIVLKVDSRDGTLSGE
T5 sequence (P10635 whole entry): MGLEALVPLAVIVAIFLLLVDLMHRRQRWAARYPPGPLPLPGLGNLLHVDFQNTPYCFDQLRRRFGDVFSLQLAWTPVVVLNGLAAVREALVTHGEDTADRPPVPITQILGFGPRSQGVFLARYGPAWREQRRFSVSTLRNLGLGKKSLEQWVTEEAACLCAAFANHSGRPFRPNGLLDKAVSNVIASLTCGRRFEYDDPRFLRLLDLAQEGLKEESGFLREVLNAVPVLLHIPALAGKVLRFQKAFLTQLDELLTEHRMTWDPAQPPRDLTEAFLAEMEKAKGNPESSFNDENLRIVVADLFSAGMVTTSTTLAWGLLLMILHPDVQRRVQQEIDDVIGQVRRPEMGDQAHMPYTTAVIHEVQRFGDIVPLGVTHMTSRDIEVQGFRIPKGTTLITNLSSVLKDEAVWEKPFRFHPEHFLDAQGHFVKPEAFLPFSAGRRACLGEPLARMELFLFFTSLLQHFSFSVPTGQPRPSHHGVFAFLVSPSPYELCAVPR
T4 sequence (P11712 whole entry): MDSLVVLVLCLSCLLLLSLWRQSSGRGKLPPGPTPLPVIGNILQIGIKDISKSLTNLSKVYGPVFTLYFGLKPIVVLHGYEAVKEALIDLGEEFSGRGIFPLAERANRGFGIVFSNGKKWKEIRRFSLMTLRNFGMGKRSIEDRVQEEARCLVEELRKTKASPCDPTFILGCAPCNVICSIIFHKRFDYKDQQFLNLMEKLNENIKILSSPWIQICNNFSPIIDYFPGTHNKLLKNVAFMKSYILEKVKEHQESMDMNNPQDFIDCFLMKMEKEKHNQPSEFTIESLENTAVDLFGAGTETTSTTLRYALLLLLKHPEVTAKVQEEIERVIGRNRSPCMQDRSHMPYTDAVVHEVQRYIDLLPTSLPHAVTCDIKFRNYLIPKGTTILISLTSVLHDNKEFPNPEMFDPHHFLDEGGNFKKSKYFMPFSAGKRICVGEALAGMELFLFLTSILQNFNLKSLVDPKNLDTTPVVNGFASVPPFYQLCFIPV

Compound: CCCC(C(=O)c1ccc(O)cc1)N1CCCC1 (stereo not drawn) [MO3.2]
- one-step metabolite detected in CYP2B6 incubation (CYP2B6; [2]): -
- one-step metabolite detected in CYP2C19 incubation (CYP2C19; [2]): +
- one-step metabolite detected in CYP3A4 incubation (CYP3A4; [2]): +
- one-step metabolite detected in CYP2C9 incubation (CYP2C9; [2]): -
- one-step metabolite detected in CYP2D6 incubation (CYP2D6; [2]): +
- one-step metabolite detected in CYP2C8 incubation (CYP2C8; [2]): +
- one-step metabolite detected in CYP2E1 incubation (CYP2E1; [2]): -
- one-step metabolite detected in CYP2A6 incubation (CYP2A6; [2]): -
- one-step metabolite detected in FMO3 incubation [1, 2]: -
- one-step metabolite detected in CYP3A5 incubation (CYP3A5; [2]): -
- one-step metabolite detected in CYP1A2 incubation (CYP1A2; [2]): +

Compound: CC(C(=O)c1ccc(S)cc1)N1CCOCC1 (stereo not drawn) [MT3.1]
- one-step metabolite detected in CYP2B6 incubation (CYP2B6; [3]): +
- one-step metabolite detected in CYP2C19 incubation (CYP2C19; [3]): +
- one-step metabolite detected in CYP3A4 incubation (CYP3A4; [3]): +
- one-step metabolite detected in CYP2C9 incubation (CYP2C9; [3]): -
- one-step metabolite detected in CYP2D6 incubation (CYP2D6; [3]): +
- one-step metabolite detected in CYP2C8 incubation (CYP2C8; [3]): +
- one-step metabolite detected in CYP2E1 incubation (CYP2E1; [3]): -
- one-step metabolite detected in CYP2A6 incubation (CYP2A6; [3]): -
- one-step metabolite detected in FMO3 incubation [1, 3]: -
- one-step metabolite detected in CYP3A5 incubation (CYP3A5; [3]): +
- one-step metabolite detected in CYP1A2 incubation (CYP1A2; [3]): +

Compound: CCNC(CC)C(=O)c1ccc(O)cc1 (stereo not drawn) [MO1.1]
- one-step metabolite detected in CYP2B6 incubation (CYP2B6; [4]): -
- one-step metabolite detected in CYP2C19 incubation (CYP2C19; [4]): +
- one-step metabolite detected in CYP3A4 incubation (CYP3A4; [4]): -
- one-step metabolite detected in CYP2C9 incubation (CYP2C9; [4]): -
- one-step metabolite detected in CYP2D6 incubation (CYP2D6; [4]): +
- one-step metabolite detected in CYP2C8 incubation (CYP2C8; [4]): -
- one-step metabolite detected in CYP2E1 incubation (CYP2E1; [4]): -
- one-step metabolite detected in CYP2A6 incubation (CYP2A6; [4]): -
- one-step metabolite detected in FMO3 incubation [1, 4]: -
- one-step metabolite detected in CYP3A5 incubation (CYP3A5; [4]): -
- one-step metabolite detected in CYP1A2 incubation (CYP1A2; [4]): +
